The text below walks through data of patent EP0100734A1, “Process for the separation or purification of a sleep promoting factor from a biological source by immunological reaction of the antigen-antibody kind” (ANVAR Agence Nationale de Valorisation de la Recherche, priority 1982, dated 1984).

Each structure is given as a SMILES string.

In this assay the test system is anticorps monoclonaux anti-MDP. The assay is described as follows: Competitive ELISA: inhibition of binding of MDP-lysine-peroxidase conjugate to captured monoclonal anti-MDP antibody. Also noted: species or system souris. On the procedure:
On a recours à la technique antérieurement. décrite dans l'article de BAHR et Coll. déjà mentionné, sous réserve de quelques modifications de détail. Les éléments essentiels de la méthodologie utilisée sont rappelés ci-après.
Les puits de plaques micro-ELISA (commercialisées par la société DYNATECH) sont tapissés avec des fractions Ig d'anticorps de chèvre anti-souris IgM, IgA ou IgG, par maintien en contact avec leurs parois d'une solution contenant 5 ug/ml de la fraction Ig pendant 3 heures à 4°C. Après lavage de la plaque avec une solution de PBS contenant 0,05 % de l'agent de dispersion commercialisé sous la dénomination TWEEN 20, on ajoute des dilutions des surnageants d'hybridomes producteurs d'anticorps anti-MDP aux différents puits et on incube pendant 2 heures à la température ambiante. Les fractions Ig facilitent la retenue des anticorps anti-MDP. Les plaques sont ensuite lavées et une solution de MDP-lysine couplé à de la péroxydase de raifort diluée au 1/1000 est ajoutée aux puits. Les plaques sont ensuite laissées au repos pendant la nuit à 4°C. Après lavage, on détermine les proportions de MDP-lysine-péroxydase fixées dans les puits, en mettant en oeuvre l'ortho-phénylène-diamine et de l'eau oxygénée en tant que substrat de la péroxydase. […]
For orientation: In an ELISA, binding on a coated surface is turned into a signal by an enzyme label.

`CC(=O)N[C@H]1C(O)O[C@H](CO)[C@@H](O)[C@@H]1O[C@H](C)C(=O)N[C@@H](C)C(=O)N[C@H](CCC(=O)O)C(N)=O` (stereo partly drawn) [MDP, M-acétyl-muramyl-L-alanyl-D-isoglutamine]: the “inhibitions exprimées par des activités” value (100 µl of MDP solution containing 100 ng, added together with MDP-peroxidase conjugate (1/1000), antibody diluted 1/100 = 100 % activity) is 31%.

`CC(=O)N[C@H]1C(O)O[C@H](CO)[C@@H](O)[C@@H]1O[C@H](C)C(=O)N[C@H](C)C(=O)N[C@H](CCC(=O)O)C(N)=O` (stereo partly drawn) [MDP-DD, N-acétyl- muramyl- D-alanyl-D-isoglutamine]: the inhibition entry (added under the same conditions together with the conjugate, amount not stated) is “aucune inhibition”.
